Measured values from patent US20240010589A1, “SUBSTITUTED RESORCINOL COMPOUNDS AS AMPK ACTIVATORS, COMPOSITIONS, METHODS AND USES THEREOF” (SOCIETE DES PRODUITS NESTLE S.A., priority 2020, published 2024).
“Also recorded” adds a separate entry of the source.

How the values were obtained:
[1] = test system: AMPK; assay: pACC HTRF assay (Cisbio) in U-2 OS Flp-In T-REx cells; type: cell-based; conditions: varying concentrations, 30 mins at 37 C, FIG. 1
Description: Compound 1 increased the phosphorylation of the AMPK substrate, acetyl-CoA carboxylase (ACC), in U-2 OS Flp-In T-REx mammalian cells. U-2 OS cells were treated with varying concentrations of Compound 1 for 30 mins at 37 C. Phosphorylation of ACC was assessed using the HTRF Cisbio (pACC kit). […] U-2 OS Flp-In T-REx cells were seeded at 50 K in a 96-well plate and left overnight at 37 C in DMEM GlutaMAX (Thermo Fisher Scientific) supplemented with 10% (vol/vol) FBS and 100 U/ml penicillin G, and 100 μg/ml streptomycin. Cells were treated for 30 mins with varying concentrations of Compound 1 in media lacking FBS and then cells were lysed in 50 μl of Cisbio lysis buffer #1 supplemented with blocking solution as per the manufacturer's protocol (Cisbio). Cells were lysed for 30 mins at room temperature before 16 μl of lysate was incubated with 4 μl of the HTRF antibodies (1:40 dilution of the acceptor and donor (p)ACC antibodies, as per the manufacturers protocol). Lysates were incubated overnight with the antibodies before the 665 nm/620 nm ratio was determined using a MolecularDevices i3 plate reader (with a HTRF cartridge add-on). […] Phosphorylation of ACC is extensively used as a cellular read-out of AMPK activity.

[2] = test system: AMPK containing β1 S108A (ADaM site) mutant subunit; assay: pACC HTRF assay in AMPKβ1/β2 double knockout U-2 OS cells stably expressing β1 S108A mutant; type: cell-based, human; conditions: varying concentrations, 30 mins at 37 C, FIG. 2
Description: (§1) The β1 WT or β1 S108A mutant were stably expressed in […] double knockout cells and were treated with varying concentrations of Compound 1 for 30 mins at 37 C. Phosphorylation of ACC was assessed using the HTRF Cisbio (pACC kit).
(§2) AMPKβ1/β2 double knockout U-2 OS Flp-In™ T-Rex™ cell lines were generated by Horizon Discovery (Cambridge, UK). Cells were genotyped and analysed by Western blotting to confirm that there was a complete knockout of AMPKβ1/β2. We took these AMPKβ1/β2 double knockout cells, and re-introduced the expression of human β1 wild-type (WT) or a (31 Serine 108 to alanine mutation (S108A). This was achieved using the Flp-In™ system (Invitrogen) present in this cell line and stable cells expressing β1 WT or a β1 S108A mutant were generated according to the manufacturers' protocols. Re-expression of the β1 subunit was confirmed by Western blot analysis.
(§3) Cells stably expressing β1 WT or a β1 S108A mutant were treated with varying concentrations of Compound 1. Cells lysates were subjected to the pACC HTRF (Cisbio) assay to determine the level of phosphorylation of the AMPK substrate, ACC, in cell lysates, as in example 1.

[3] = test system: AMPK containing β1 wild-type (WT) subunit; assay: pACC HTRF assay in AMPKβ1/β2 double knockout U-2 OS cells stably expressing β1 WT; type: cell-based, human; conditions: varying concentrations, 30 mins at 37 C, FIG. 2
Description: as §1, §2, §3

C=C(C)[C@@H]1CCC(C)=C[C@H]1c1c(O)cc(CCCCC)cc1O [Compound 1, 2-[(1R,6R)-3-Methyl-6-(1-methylethenyl)-2-cyclohexen-1-yl]-5-pentyl-1,3-benzenediol]
phosphorylation of the AMPK substrate ACC (HTRF ratio 665/620 nm) [1]: increased the phosphorylation of the AMPK substrate, ACC, in a dose-dependent manner
phosphorylation of ACC (pACC) / AMPK activation, fold increase in activation [2]: did not activate AMPK; also recorded: not able to increase the activity of AMPK
phosphorylation of ACC (pACC), fold increase in activation [3]: able to dose-dependently increase pACC
